Molecular target: T1, myeloperoxidase (MPO) (Homo sapiens, UniProt P05164)
T1 sequence (P05164 49-745): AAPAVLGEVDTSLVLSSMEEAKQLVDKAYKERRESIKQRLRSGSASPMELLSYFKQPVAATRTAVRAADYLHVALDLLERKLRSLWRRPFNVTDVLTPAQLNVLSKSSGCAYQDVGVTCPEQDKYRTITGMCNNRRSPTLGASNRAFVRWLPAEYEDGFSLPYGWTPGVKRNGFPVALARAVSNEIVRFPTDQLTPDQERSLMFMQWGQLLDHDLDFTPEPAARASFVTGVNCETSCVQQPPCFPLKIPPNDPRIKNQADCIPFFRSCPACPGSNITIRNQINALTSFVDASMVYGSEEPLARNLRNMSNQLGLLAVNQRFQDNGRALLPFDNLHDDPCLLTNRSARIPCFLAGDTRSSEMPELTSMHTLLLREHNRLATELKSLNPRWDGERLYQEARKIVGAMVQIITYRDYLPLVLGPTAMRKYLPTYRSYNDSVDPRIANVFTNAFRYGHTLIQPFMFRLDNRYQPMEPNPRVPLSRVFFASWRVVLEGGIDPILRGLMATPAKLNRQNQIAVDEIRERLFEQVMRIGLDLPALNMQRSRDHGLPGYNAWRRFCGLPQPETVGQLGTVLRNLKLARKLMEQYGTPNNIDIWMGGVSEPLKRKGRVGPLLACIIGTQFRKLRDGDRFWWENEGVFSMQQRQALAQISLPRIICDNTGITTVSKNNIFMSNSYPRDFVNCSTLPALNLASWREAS
Assay: MPO peroxidation assay (Amplex Red assay)
Format: biochemical
Settings: MPO peroxidation, potency range class; read-out: Amplex Red IC50
Summary of the method: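 MPO (200 pM) with 40 nM H2O2 was preincubated 10 min at room temperature with inhibitor in 100 mM KPi pH 7.4. A mix of Amplex Red (200 μM) and H2O2 (10 mM) was then added and resorufin fluorescence read kinetically for 15 min. Slopes over 180–540 s gave % inhibition and IC50 via a four-parameter Hill fit.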

IC50, 0.001 to 0.1 µM:
Nc1cc(OCc2ccc(-n3cc4ccccc4n3)cc2OC(F)(F)F)c2nn[nH]c2n1 [Example 259, 7-((4-(2H-indazol-2-yl)-2-(trifluoromethoxy)benzyl)oxy)-3H-[1,2,3]triazolo[4,5-b]pyridin-5-amine]
Nc1cc(OCc2ccc(-n3cnc(-c4ccccc4)c3)cc2OC(F)(F)F)c2nn[nH]c2n1 [Example 260, 7-((4-(4-phenyl-1H-imidazol-1-yl)-2-(trifluoromethoxy)benzyl)oxy)-3H-[1,2,3] triazolo[4,5-b]pyridin-5-amine]
Nc1cc(OCc2ccc(-n3cnc(CO)c3)cc2OC(F)(F)F)c2nn[nH]c2n1 [Example 265, (1-(4-(((5-amino-3H-[1,2,3]triazolo[4,5-b]pyridin-7-yl)oxy)methyl)-3-(trifluoromethoxy)phenyl)-1H-imidazol-4-yl)methanol]
Nc1cc(OCc2ccc(-n3cncn3)cc2OC(F)(F)F)c2nn[nH]c2n1 [Example 267, 7-((4-(1H-1,2,4-triazol-1-yl)-2-(trifluoromethoxy)benzyl)oxy)-3H-[1,2,3]triazolo[4,5-b]pyridin-5-amine]
Cc1nccn1-c1ccc(COc2cc(N)nc3[nH]nnc23)c(OC(F)(F)F)c1 [Example 268, 7-((4-(2-methyl-1H-imidazol-1-yl)-2-(trifluoromethoxy)benzyl)oxy)-3H-[1,2,3] triazolo[4,5-b]pyridin-5-amine]
N#Cc1cnn(-c2ccc(COc3cc(N)nc4[nH]nnc34)c(OC(F)(F)F)c2)c1 [Example 270, 1-(4-(((5-amino-3H-[1,2,3]triazolo[4,5-b]pyridin-7-yl)oxy)methyl)-3-(trifluoromethoxy)phenyl)-1H-pyrazole-4-carbonitrile]

IC50, 0.101 to 0.999 µM:
Nc1cc(OCc2ccc(-n3cnc4ccccc43)cc2OC(F)(F)F)c2nn[nH]c2n1 [Example 261, 7-((4-(1H-benzo[d]imidazol-1-yl)-2-(trifluoromethoxy)benzyl)oxy)-3H-[1,2,3] triazolo[4,5-b]pyridin-5-amine]
COC(=O)c1cn(-c2ccc(COc3cc(N)nc4[nH]nnc34)c(OC(F)(F)F)c2)cn1 [Example 264, methyl 1-(4-(((5-amino-3H-[1,2,3]triazolo[4,5-b]pyridin-7-yl)oxy)methyl)-3-(trifluoromethoxy)phenyl)-1H-imidazole-4-carboxylate]
CN(C)Cc1cn(-c2ccc(COc3cc(N)nc4[nH]nnc34)c(OC(F)(F)F)c2)cn1 [Example 266, 7-((4-(4-((dimethylamino)methyl)-1H-imidazol-1-yl)-2-(trifluoromethoxy)benzyl)oxy)-3H-[1,2,3]triazolo[4,5-b]pyridin-5-amine]
Nc1cc(OCc2ccc(-n3cnc(C(F)(F)F)c3)cc2OC(F)(F)F)c2nn[nH]c2n1 [Example 272, 7-((2-(trifluoromethoxy)-4-(4-(trifluoromethyl)-1H-imidazol-1-yl)benzyl)oxy)-3H-[1,2,3]triazolo[4,5-b] pyridin-5-amine]
Cc1cn(-c2ccc(COc3cc(N)nc4[nH]nnc34)c(OC(F)(F)F)c2)cn1 [Example 273, 7-((4-(4-methyl-1H-imidazol-1-yl)-2-(trifluoromethoxy)benzyl)oxy)-3H-[1,2,3] triazolo[4,5-b]pyridin-5-amine]
N#Cc1cc(-n2cnc3ccccc32)ccc1COc1cc(N)nc2[nH]nnc12 [Example 274, 2-(((5-amino-3H-[1,2,3]triazolo[4,5-b]pyridin-7-yl)oxy)methyl)-5-(1H-benzo[d]imidazol-1-yl)benzonitrile]
Cc1cn(-c2ccc(COc3cc(N)nc4[nH]nnc34)c(C#N)c2)cn1 [Example 276, 2-(((5-amino-3H-[1,2,3]triazolo[4,5-b]pyridin-7-yl)oxy)methyl)-5-(4-methyl-1H-imidazol-1-yl)benzonitrile]
Nc1cc(OCc2c(F)cc(-n3ccnc3)cc2F)c2nn[nH]c2n1 [Example 279, 7-((2,6-difluoro-4-(1H-imidazol-1-yl)benzyl)oxy)-3H-[1,2,3]triazolo[4,5-b] pyridin-5-amine]

Reference: US10316035B2, “Triazolopyridine inhibitors of myeloperoxidase” (BRISTOL-MYERS SQUIBB COMPANY, priority 2015, dated 2019)
